Blank lines part the entries; values can stand above or below the compound they belong to. Calls of active or inactive are those of the source. The calls are words filed in the database; no cut-off is given here. Residues, ends and D or L forms follow the SMILES beside them.
What was measured:
Mus musculus [1] = experiment: Antidiabetic activity in STZ induced male Balb/c mouse model assessed as amelioration of tubular necrosis at 10 mg/kg, po treated for 21 days; assay type: functional, organism-based; conditions: time 21.0 day
Mus musculus [2] = experiment: Antidiabetic activity in STZ induced male Balb/c mouse model assessed as amelioration of abnormal nephron cell morphology at 10 mg/kg, po treated for 21 days; assay type: functional, organism-based; conditions: time 21.0 day
Mus musculus [3] = experiment: Antidiabetic activity in STZ induced male Balb/c mouse model assessed as amelioration of glomerular necrosis at 10 mg/kg, po treated for 21 days; assay type: functional, organism-based; conditions: time 21.0 day
Mus musculus [4] = experiment: Antidiabetic activity in STZ induced male Balb/c mouse model assessed as amelioration of endocytic vacuole content at 10 mg/kg, po treated for 21 days; assay type: functional, organism-based; conditions: time 21.0 day
Mus musculus [5] = experiment: Antidiabetic activity in STZ induced male Balb/c mouse model assessed as amelioration of tubular degeneration at 10 mg/kg, po treated for 21 days; assay type: functional, organism-based; conditions: time 21.0 day
Mus musculus [6] = experiment: Antidiabetic activity in STZ induced male Balb/c mouse model assessed as amelioration of glomerular shrinkage at 10 mg/kg, po treated for 21 days; assay type: functional, organism-based; conditions: time 21.0 day
Mus musculus [7] = experiment: Antidiabetic activity in STZ induced male Balb/c mouse model assessed as appearance of tubule epithelium at 63.81 ug/kg, ip treated for 21 days; assay type: functional, organism-based; conditions: dose 63.81 µg/kg, time 21.0 day
Mus musculus [8] = experiment: Antidiabetic activity in STZ induced male Balb/c mouse model assessed as ordered nephron cells with glomeruli at 63.81 ug/kg, ip treated for 21 days; assay type: functional, organism-based; conditions: dose 63.81 µg/kg, time 21.0 day
Mus musculus [9] = experiment: Antidiabetic activity in STZ induced male Balb/c mouse model assessed as reduction in glomerulus diameter at 63.81 ug/kg, ip treated for 21 days; assay type: functional, organism-based; conditions: dose 63.81 µg/kg, time 21.0 day
[10] = molecular target: T1, Pancreatic alpha-amylase (Sus scrofa) (UniProt P00690); experiment: Mixed type inhibition of porcine pancreatic Alpha-amylase using starch as substrate pre-incubated for 20 mins followed by substrate addition and measured after 15 mins by DNS reagent based absorbance assay; conditions: time 35.0 min
T1 sequence (whole entry): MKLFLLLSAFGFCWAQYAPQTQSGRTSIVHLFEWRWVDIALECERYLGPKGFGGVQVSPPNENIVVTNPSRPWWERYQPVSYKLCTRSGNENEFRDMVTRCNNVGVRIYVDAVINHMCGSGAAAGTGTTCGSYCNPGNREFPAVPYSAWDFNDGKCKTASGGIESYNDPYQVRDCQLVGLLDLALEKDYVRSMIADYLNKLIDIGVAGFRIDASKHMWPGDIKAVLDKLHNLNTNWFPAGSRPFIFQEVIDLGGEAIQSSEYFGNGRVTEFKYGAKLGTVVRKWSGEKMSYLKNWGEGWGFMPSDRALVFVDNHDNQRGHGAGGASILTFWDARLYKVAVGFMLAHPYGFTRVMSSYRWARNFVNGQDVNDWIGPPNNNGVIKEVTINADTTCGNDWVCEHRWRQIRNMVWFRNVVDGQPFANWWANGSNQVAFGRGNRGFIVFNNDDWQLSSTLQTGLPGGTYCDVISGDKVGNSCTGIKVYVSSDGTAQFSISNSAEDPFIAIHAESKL

Mus musculus [11] = experiment: Antidiabetic activity in STZ induced male Balb/c mouse model assessed as reduction in bowman's space at 63.81 ug/kg, ip treated for 21 days; assay type: functional, organism-based; conditions: dose 63.81 µg/kg, time 21.0 day
[12] = tested on: N=C(N)NCCC[C@H](N)C(=O)N[C@@H](Cc1c[nH]c2ccccc12)C(=O)N[C@@H](Cc1c[nH]c2ccccc12)C(=O)O; experiment: Competitive inhibition of Alpha-glucosidase (unknown origin) using p-nitrophenyl-alpha-D-glucopyranoside as substrate assessed as Km pre-incubated for 10 mins followed by substrate addition and measured after 5 mins by Lineweaver-Burk plot analysis (reference value: 1.785 mM); assay type: protein assay; conditions: Homo sapiens; time 15.0 min
[13] = tested on: N=C(N)NCCC[C@H](N)C(=O)N[C@@H](Cc1c[nH]c2ccccc12)C(=O)N[C@@H](Cc1c[nH]c2ccccc12)C(=O)O; experiment: Competitive inhibition of Alpha-glucosidase (unknown origin) using p-nitrophenyl-alpha-D-glucopyranoside as substrate assessed as maximum velocity pre-incubated for 10 mins followed by substrate addition and measured after 5 mins by Lineweaver-Burk plot analysis (reference value: 0.802); assay type: protein assay; conditions: Homo sapiens; time 15.0 min

Compound: CCC1=C(C)CN(C(=O)NCCc2ccc(S(=O)(=O)NC(=O)N[C@H]3CC[C@H](C)CC3)cc2)C1=O
Activity (Mus musculus [1]): Active | Activity (Mus musculus [2]): Active | Activity (Mus musculus [3]): Active | Activity (Mus musculus [4]): Active | Activity (Mus musculus [5]): Active | Activity (Mus musculus [6]): Active

inhibition [10]: Active
Compound: N=C(N)NCCC[C@H](N)C(=O)N[C@@H](Cc1c[nH]c2ccccc12)C(=O)N[C@@H](Cc1c[nH]c2ccccc12)C(=O)O (H-Arg-Trp-Trp-OH)
Activity (Mus musculus [7]): Active | Activity (Mus musculus [8]): Active | Activity (Mus musculus [9]): Active | Activity (Mus musculus [11]): Active

Compound: Alpha glucosidase (Homo sapiens) (from UniProt O43451+P10253+P14410+Q2M2H8)
Km [12]: 1370 µM | Vmax [13]: 0.7
